The record followed here is PMC10185561, “RagD auto-activating mutations impair MiT/TFE activity in kidney tubulopathy and cardiomyopathy syndrome” (Nature Communications, 2023).

The target in this assay is T1, GST-RagD (Homo sapiens, UniProt Q9NQL2).
T1 construct: gene RRAGD; GST fusion from pET24d(+) in E. coli Rosetta (DE3), glutathione Sepharose; RagD alone without RagA/B; GST tag kept
Put plainly: UV crosslinking of alpha-32P-GTP, SDS-PAGE, autoradiography. Format: binding. Conditions: labelled compound; 1 nM alpha-32P-GTP; 31.25 nM to 2 uM protein; 2 mM MgCl2; 50 mM HEPES pH 7.5; 100 mM potassium acetate; 4 h at 4 C.

T1 sequence (Q9NQL2 whole entry, the tested form may be a part): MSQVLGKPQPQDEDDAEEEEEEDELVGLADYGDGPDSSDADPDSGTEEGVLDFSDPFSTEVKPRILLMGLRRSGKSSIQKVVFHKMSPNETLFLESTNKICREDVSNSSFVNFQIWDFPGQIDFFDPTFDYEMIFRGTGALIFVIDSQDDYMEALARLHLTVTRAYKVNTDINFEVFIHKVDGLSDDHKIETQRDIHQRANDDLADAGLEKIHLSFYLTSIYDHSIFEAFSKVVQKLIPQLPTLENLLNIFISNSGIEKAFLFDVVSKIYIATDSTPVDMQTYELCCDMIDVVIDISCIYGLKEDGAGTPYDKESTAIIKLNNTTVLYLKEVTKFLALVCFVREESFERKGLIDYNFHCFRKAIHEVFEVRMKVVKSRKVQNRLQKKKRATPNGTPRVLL

As for `Nc1nc2c(ncn2[C@@H]2O[C@H](COP(=O)(O)OP(=O)(O)OP(=O)(O)O)[C@@H](O)[C@H]2O)c(=O)[nH]1` [GTP], the “UV crosslinking of alpha-32P-GTP, SDS-PAGE, autoradiography” value is recorded as “WT RagD bound GTP in a concentration-dependent manner”.
